Test results: the NIST ThermoML archive (doi:10.1016/j.tca.2008.12.007)

Details: 101.33 kPa, Liquid, Vibrating tube method

C1CCCNCC1 [azacycloheptane]
Details	mass density [kg/m3]
273.16 K	898.81
273.66 K	898.36
274.16 K	897.92
274.66 K	897.48
275.16 K	897.04
275.66 K	896.6
276.16 K	896.16
276.66 K	895.72
277.16 K	895.28
277.66 K	894.84
278.16 K	894.4
278.66 K	893.96
279.16 K	893.51
279.66 K	893.07
280.16 K	892.63
280.66 K	892.19
281.16 K	891.75
281.66 K	891.31
282.16 K	890.87
282.66 K	890.42
283.16 K	889.98
283.66 K	889.54
284.16 K	889.1
284.66 K	888.66
285.15 K	888.22
285.66 K	887.77
286.16 K	887.33
286.66 K	886.89
287.16 K	886.45
287.66 K	886
288.16 K	885.56
288.66 K	885.12
289.16 K	884.68
289.66 K	884.23
290.16 K	883.79
290.66 K	883.35
291.15 K	882.91
291.65 K	882.47
292.16 K	882.03
292.65 K	881.58
293.15 K	881.15
293.65 K	880.71
294.15 K	880.26
294.65 K	879.82
295.15 K	879.38
295.65 K	878.94
319.15 K	858.06
319.65 K	857.61
320.15 K	857.17
320.65 K	856.72
321.15 K	856.28
321.65 K	855.83
322.15 K	855.39
322.65 K	854.94
323.15 K	854.49
323.65 K	854.05
324.15 K	853.6
324.65 K	853.15
325.15 K	852.71
325.66 K	852.26
326.16 K	851.81
326.66 K	851.37
327.15 K	850.92
327.66 K	850.47
328.16 K	850.03
328.66 K	849.58
329.16 K	849.13
329.66 K	848.69
330.16 K	848.24
330.65 K	847.79
331.16 K	847.35
331.66 K	846.9
332.15 K	846.45
332.66 K	846
333.16 K	845.55
333.65 K	845.11
334.16 K	844.66
334.65 K	844.21
335.16 K	843.76
335.65 K	843.31
336.16 K	842.86
336.66 K	842.42
337.16 K	841.96
337.66 K	841.52
338.16 K	841.07
338.66 K	840.62
339.16 K	840.17
339.66 K	839.72
340.16 K	839.27
340.66 K	838.82
341.16 K	838.37
341.65 K	837.92
